“Also recorded” adds a separate entry of the source. Where two headings read alike, the source gives them in different places.
How the values were obtained:
OAT1 = OAT1 (Homo sapiens, UniProt Q4U2R8); assay: Transporter inhibition, OAT1; details: up to 30 μM
[1] = tested on: peripheral NK cell counts; assay: Peripheral NK cell counts in healthy rats; format: in vivo, rat
From the text: The correlation of this effect with ex vivo cytokine signaling inhibition is shown in the right panel of FIG. 6. These measurements correlated well, confirming the Jak dependency of the NK cell count endpoint.
To establish the relationship between changes in NK cell counts and nonclinical efficacy, the changes in NK cell counts were compared with decreases in rat AIA disease activity per unit exposure.

CYP2C19 = CYP2C19 (Homo sapiens, UniProt P33261); assay: CYP inhibition in human liver microsomes, CYP2C19
[2] = In vitro metabolism of [14C]Compound 1 in liver cytosol and hepatocytes; format: in vitro ADME, rat, dog, monkey, and human
From the text: (§1) In vitro biotransformation of Compound 1 primarily occurred at imidazolpyrrolopyrazinyl ethyl pyrrolidine moiety.

[3] = 9-month (39 weeks) GLP chronic oral toxicity study in dogs; details: both sexes, beagle, in vivo, dog, 9 months (39 weeks)
Procedure: (§2) The GLP-compliant studies each included 4 weeks of oral dosing followed by a 4-week recovery period in both rats and dogs followed by GLP-compliant chronic toxicity studies in rats (6 months of oral dosing) and dogs (9 months of oral dosing).
A subsequent GLP-compliant 9-month chronic dog study was conducted in beagle dogs at dosages of 0, 0.1, 0.5, and 1.5 mg/kg/day by daily oral capsule administration. No Compound 1-related changes in food consumption or body weights were observed during the dosing period.

CYP2C8 = CYP2C8 (Homo sapiens, UniProt P10632); assay: CYP inhibition in human liver microsomes, CYP2C8
[4] = tested on: GMCSF-induced pSTAT5 (Jak2 signaling); assay: Ex vivo stimulation assay GM-CSF pSTAT5, orally dosed human; details: 24 mg but not 12 mg oral, 1 hour post dose
Photostability = format: physicochemical; details: preclinical studies
From the text: In repeated-dose oral toxicity studies in rats and dogs of 6 and 9 months duration, respectively, no evidence of skin or ocular toxicity has been observed.

CYP1A2 = assay: CYP induction (mRNA) in human hepatocytes, CYP1A2; format: in vitro ADME; details: 1, 3, and 10 μM
MATEK = MATEK (Homo sapiens, UniProt Q86VL8); assay: Transporter inhibition, MATEK
all other CYPs = assay: Metabolism by all other recombinant CYPs; format: in vitro ADME
MATE1 = MATE1 (Homo sapiens, UniProt Q96FL8); assay: Transporter inhibition, MATE1
CYP2B6 = CYP2B6 (Homo sapiens, UniProt P20813); assay: CYP inhibition in human liver microsomes, CYP2B6
CYP2D6 = CYP2D6 (Homo sapiens, UniProt P10635); assay: Metabolism by recombinant CYP2D6; format: in vitro ADME; design: from tissue; host or cells: human liver microsomes
From the text: as §1

[5] = Metabolic stability in liver microsomes, human; format: in vitro ADME; details: read-out: intrinsic clearance in liver microsomes (converted)
Rock2 = Rock2 (Homo sapiens, UniProt O75116); assay: Kinase panel, Rock2; format: biochemical
[6] = Pivotal 4-week GLP oral toxicity study in dogs; format: in vivo, beagle dogs
From the text: as §2

[7] = Plasma protein binding, human; format: in vitro ADME
CYP3A5 = CYP3A5 (Homo sapiens, UniProt P20815); assay: Metabolism by recombinant CYP3A5; format: in vitro ADME
From the text: as §1

IL-6 signaling = assay: Whole blood assay IL-6 pSTAT3 CD14+; format: cell-based
[8] = Metabolic stability in hepatocytes, monkey; format: in vitro ADME; details: read-out: intrinsic clearance in hepatocytes (converted)
[9] = Human PK in healthy Japanese and Chinese subjects, Study M13-543; format: in vivo; details: for AUC12/dose / Cmax/dose / Ctrough/Dose: Day 14, mean (% CV); for half-life / AUC / concentration at 14 day / AUC(0-t): human, plasma, oral; for AUC: read-out: AUC12; for concentration at 14 day: read-out: Ctrough; for AUC(0-t): mean (% CV)
From the text: Two additional subjects were assigned to each dose level as placebo control.

[10] = Safety pharmacology in dogs (mean arterial pressure, heart rate); details: dog, in vivo; read-out: Cmax at which effects on mean arterial pressure and heart rate begin
Procedure: Compound 1 was tested in a battery of safety pharmacology assays.

[11] = Japanese, 6 & 24 mg single doses
[12] = 18 mg, Chinese, 18 mg BID, Day 14
[13] = 18 mg, Japanese, 18 mg BID, Day 14

CYP2C19, sequence (P33261 whole entry): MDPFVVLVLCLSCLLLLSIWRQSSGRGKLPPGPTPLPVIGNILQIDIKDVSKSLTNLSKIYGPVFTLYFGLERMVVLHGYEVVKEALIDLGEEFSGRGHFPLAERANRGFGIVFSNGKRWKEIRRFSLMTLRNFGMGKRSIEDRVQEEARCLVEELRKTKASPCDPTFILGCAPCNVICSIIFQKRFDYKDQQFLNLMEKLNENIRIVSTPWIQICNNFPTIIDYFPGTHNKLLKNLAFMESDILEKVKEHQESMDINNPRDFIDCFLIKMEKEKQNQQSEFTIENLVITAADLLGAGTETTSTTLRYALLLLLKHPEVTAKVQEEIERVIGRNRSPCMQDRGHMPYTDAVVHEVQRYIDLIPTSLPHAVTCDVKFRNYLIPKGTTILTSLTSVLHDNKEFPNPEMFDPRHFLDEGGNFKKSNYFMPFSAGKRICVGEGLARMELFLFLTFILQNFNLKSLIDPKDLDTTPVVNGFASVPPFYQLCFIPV
CYP2B6, sequence (P20813 whole entry): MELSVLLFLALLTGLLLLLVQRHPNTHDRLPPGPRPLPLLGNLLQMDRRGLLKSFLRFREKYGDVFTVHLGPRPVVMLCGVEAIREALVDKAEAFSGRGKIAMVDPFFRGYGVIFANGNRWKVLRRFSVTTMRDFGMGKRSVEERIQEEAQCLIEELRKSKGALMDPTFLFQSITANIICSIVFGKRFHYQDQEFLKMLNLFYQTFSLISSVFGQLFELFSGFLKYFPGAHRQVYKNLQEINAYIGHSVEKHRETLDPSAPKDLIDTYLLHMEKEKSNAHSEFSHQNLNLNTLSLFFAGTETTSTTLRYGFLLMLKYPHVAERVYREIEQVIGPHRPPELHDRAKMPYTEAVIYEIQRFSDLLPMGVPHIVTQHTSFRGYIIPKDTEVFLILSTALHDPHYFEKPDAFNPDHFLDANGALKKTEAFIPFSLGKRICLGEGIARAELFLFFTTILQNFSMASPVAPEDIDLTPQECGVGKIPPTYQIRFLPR
CYP2C8, sequence (P10632 whole entry): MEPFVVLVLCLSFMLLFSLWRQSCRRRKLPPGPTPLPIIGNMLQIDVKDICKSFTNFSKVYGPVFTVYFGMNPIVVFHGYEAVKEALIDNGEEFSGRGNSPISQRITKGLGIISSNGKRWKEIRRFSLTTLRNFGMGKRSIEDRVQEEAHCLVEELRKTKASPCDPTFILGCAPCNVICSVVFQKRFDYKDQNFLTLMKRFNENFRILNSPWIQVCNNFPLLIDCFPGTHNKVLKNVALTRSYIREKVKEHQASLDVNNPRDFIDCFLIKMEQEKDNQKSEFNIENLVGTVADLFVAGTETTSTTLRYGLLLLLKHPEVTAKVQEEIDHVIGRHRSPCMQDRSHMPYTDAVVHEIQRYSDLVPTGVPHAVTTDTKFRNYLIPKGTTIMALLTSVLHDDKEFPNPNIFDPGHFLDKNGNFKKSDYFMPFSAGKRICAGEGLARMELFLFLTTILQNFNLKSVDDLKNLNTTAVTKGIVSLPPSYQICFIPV
Rock2, sequence (O75116 whole entry, species assumed): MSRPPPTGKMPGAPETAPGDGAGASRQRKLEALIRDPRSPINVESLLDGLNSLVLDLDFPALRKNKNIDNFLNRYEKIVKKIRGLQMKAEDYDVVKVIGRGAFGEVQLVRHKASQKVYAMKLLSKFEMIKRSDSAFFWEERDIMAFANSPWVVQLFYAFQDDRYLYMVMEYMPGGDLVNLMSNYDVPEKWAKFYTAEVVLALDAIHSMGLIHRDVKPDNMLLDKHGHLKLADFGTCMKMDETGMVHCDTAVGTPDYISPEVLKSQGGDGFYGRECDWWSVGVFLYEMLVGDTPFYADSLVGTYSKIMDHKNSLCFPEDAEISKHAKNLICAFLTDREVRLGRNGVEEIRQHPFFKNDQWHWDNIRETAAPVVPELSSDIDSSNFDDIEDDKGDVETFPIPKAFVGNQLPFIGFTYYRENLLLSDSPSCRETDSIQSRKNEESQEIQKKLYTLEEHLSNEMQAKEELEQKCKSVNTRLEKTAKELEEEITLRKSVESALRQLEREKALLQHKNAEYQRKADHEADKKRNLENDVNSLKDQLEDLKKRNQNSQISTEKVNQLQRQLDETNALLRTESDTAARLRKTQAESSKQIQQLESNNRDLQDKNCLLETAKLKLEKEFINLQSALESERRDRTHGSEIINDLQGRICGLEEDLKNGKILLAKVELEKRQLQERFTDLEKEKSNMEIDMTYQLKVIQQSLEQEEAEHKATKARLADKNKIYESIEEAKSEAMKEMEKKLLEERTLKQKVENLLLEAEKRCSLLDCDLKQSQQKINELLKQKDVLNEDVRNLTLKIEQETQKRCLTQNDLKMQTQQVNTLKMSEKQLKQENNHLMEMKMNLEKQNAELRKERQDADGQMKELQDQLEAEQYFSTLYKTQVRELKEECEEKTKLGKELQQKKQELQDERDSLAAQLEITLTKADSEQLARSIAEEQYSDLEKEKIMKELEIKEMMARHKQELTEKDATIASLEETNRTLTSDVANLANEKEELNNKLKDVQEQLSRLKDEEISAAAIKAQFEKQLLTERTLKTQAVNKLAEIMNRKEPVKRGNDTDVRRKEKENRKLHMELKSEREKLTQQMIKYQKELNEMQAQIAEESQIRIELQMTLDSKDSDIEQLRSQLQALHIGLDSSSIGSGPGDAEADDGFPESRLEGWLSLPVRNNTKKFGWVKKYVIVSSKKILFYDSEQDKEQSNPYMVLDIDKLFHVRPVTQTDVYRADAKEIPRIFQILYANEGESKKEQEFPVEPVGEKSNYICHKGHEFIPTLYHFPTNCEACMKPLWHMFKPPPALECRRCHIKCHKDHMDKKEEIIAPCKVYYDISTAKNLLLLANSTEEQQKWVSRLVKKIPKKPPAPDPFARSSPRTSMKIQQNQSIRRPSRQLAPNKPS
MATEK, sequence (Q86VL8 1-566 isoform Q86VL8-3): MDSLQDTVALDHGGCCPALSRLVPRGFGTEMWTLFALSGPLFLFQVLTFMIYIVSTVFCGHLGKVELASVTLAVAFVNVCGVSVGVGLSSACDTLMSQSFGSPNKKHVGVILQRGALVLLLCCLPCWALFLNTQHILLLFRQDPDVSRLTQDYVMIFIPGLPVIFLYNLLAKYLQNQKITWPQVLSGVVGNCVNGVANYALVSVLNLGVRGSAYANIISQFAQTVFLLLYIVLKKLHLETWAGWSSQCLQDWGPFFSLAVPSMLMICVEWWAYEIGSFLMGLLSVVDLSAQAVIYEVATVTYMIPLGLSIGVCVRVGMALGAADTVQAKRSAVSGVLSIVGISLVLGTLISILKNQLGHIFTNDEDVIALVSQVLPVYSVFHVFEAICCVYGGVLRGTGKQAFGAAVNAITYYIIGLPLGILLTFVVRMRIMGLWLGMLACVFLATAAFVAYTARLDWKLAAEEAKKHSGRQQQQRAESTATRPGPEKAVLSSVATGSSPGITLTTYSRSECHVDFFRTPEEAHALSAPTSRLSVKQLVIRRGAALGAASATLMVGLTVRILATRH
MATE1, sequence (Q96FL8 whole entry): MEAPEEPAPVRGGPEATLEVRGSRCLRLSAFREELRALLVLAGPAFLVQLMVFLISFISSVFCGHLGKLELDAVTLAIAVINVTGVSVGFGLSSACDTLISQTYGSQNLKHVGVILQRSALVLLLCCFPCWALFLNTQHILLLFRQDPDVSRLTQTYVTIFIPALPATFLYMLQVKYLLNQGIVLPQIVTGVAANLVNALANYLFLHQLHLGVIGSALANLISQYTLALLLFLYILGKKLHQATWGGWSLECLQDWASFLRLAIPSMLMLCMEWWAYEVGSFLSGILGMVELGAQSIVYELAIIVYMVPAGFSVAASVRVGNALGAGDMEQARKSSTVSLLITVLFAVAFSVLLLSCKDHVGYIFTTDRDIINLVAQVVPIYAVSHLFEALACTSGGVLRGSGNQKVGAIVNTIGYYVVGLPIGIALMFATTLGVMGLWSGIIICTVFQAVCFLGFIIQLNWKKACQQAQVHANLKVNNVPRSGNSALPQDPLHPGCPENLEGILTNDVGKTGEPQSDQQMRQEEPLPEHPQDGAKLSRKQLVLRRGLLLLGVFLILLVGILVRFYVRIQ
OAT1, sequence (Q4U2R8 whole entry): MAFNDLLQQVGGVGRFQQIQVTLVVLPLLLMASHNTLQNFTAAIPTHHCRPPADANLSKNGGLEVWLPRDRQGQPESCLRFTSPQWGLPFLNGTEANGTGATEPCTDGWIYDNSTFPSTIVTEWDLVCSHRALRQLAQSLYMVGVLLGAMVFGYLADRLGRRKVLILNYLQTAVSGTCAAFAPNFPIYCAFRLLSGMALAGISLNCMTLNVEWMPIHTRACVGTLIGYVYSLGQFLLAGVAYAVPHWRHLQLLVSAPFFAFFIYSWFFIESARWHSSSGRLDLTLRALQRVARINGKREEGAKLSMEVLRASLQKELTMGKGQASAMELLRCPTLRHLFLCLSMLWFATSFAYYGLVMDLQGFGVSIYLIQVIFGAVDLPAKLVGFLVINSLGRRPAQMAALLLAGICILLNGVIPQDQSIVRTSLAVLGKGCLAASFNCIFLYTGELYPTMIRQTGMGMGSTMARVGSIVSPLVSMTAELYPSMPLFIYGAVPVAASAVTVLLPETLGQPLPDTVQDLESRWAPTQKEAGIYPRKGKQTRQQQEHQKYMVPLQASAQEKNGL

In the case of `CC[C@@H]1CN(C(=O)NCC(F)(F)F)C[C@@H]1c1cnc2cnc3[nH]ccc3n12` [Compound 1, (3S,4R)-3-ethyl-4-(3H-imidazo[1,2-a]pyrrolo[2,3-e]pyrazin-8-yl)-N-(2,2,2-trifluoroethyl)pyrrolidine-1-carboxamide], the “inhibition of OAT1 uptake” value (OAT1) is reported as “No significant inhibition”, the “effects on peripheral NK cell counts” value ([1]; over the efficacious exposure range, rat) is reported as “less than that of Tofacitinib” and the “predicted maximum decrease of NK cell counts” value ([1]; over the intended clinical exposure range, on the basis of rat models) is reported as “approximately 40%”. The “NK Counts (exposure)” value ([1]; rat) was 290 ng·h/mL, the “NK cell count decrease at about 60% efficacy (inhibition of paw swelling)” value ([1]; rat) was ~25% and the “time-dependent inhibition of CYP2C19” value (CYP2C19; human liver microsomes) was “No obvious time-dependent inhibition”. The “inhibition of CYP2C19” value (CYP2C19; up to 30 μM) was “did not inhibit; also recorded: not an inhibitor”, the “metabolism in liver cytosol incubations” value ([2]; liver cytosol) was “No metabolism” and the turnover in hepatocytes ([2]; rat, dog, monkey, human hepatocytes) was < 10%. For the same compound, the NOAEL at 9 months [3] was 1.5 mg/kg/day, the “time-dependent inhibition of CYP2C8” value (CYP2C8; human liver microsomes) was “No obvious time-dependent inhibition” and the “inhibition of CYP2C8” value (CYP2C8; up to 30 μM) was “did not inhibit; also recorded: not an inhibitor”. The “inhibition of GMCSF-induced pSTAT5” value [4] was “partial inhibition”, the photostability (Photostability) was “photoinstability” and the “mRNA expression of CYP1A2” value (CYP1A2) was “did not increase”. The IC50 (MATEK) was > 15000 nM, the “adverse events severe, serious, or fatal” value (Study M13-845) was “None” and the “number of adverse events in combined treatment groups” value (Substudy 2, RA on MTX, 6, 12, 24 mg BID, all reported as not related) was 7. For the same compound, the “subjects reporting treatment emergent AEs (6 out of 42)” value (healthy volunteers, as printed under Substudy 1) was 14.3%, the “percentage of parent remaining” value (all other CYPs) was “greater than 98.0%” and the IC50 (MATE1) was 11000 nM. The “time-dependent inhibition of CYP2B6” value (CYP2B6; human liver microsomes) was “No obvious time-dependent inhibition”, the “inhibition of CYP2B6” value (CYP2B6; up to 30 μM) was “did not inhibit; also recorded: not an inhibitor” and the “percentage of parent remaining” value (CYP2D6) was 73.4%. The CLint scaled at 0.5 μM [5] was 31.2 mL/min/kg, the IC50 (Rock2) was 430 nM and the NOAEL at 4 weeks ([6]; both sexes, beagle, in vivo, dog, 4 weeks GLP, oral capsule) was 1.5 mg/kg/day. The AUC(0-t) ([6]; both, beagle, plasma, oral, dog 1.5 mg/kg/day, males and females combined, read-out: AUC0-24 at NOAEL) was 1200 ng·h/mL, the “decreases in red cell mass (up to)” value ([6]; dog, 3 mg/kg/day) was −23% and the “decreases in circulating lymphocytes compared with baseline” value ([6]; dog, 5 mg/kg/day) was −20% to −37%. The “decreases in red cell mass (up to)” value ([6]; dog, 5 mg/kg/day) was −32%, the “Adverse Findings” value ([6]; dog, 4 weeks GLP, leading number = dose mg/kg/day) was “≧3: Popliteal lymph” and the fraction unbound [7] was 0.53. For the same compound, the “percentage of parent remaining” value (CYP3A5) was 80.6%, the IC50 (IL-6 signaling; read-out: IL-6 (pSTAT3, CD14+)) was 17 nM and the IC50 (IL-6 signaling; whole blood, read-out: IC50 IL-6 pSTAT3 CD14+) was 17 nM. For the same compound, the CLint scaled at 1 μM [8] was 6.88 mL/min/kg, the CL/F ([9]; Chinese, 18 mg BID, Day 14) was 39.0 L/h and the AUC12/dose ([9]; Chinese, 18 mg BID) was 25.9 ng·h/mL/mg. For the same compound, the Cmax/dose ([9]; Chinese, 18 mg BID) was 6.57 ng/mL/mg, the Ctrough/Dose ([9]; Chinese, 18 mg BID) was 0.43 ng/mL/mg and the “AUC lower than previously observed in Western subjects” value ([9]; Japanese, 3 mg single dose) was 14%. For the same compound, the “Cmax lower than previously observed in Western subjects” value ([9]; Japanese, 3 mg single dose) was 22%, the CL/F ([9]; Japanese, 18 mg BID, Day 14) was 35.2 L/h and the AUC12/dose ([9]; Japanese, 18 mg BID) was 29.0 ng·h/mL/mg. For the same compound, the Cmax/dose ([9]; Japanese, 18 mg BID) was 7.08 ng/mL/mg, the Ctrough/Dose ([9]; Japanese, 18 mg BID) was 0.48 ng/mL/mg and the “AUC higher than previously observed in Western subjects” value [9, 11] was 16-18%. The “Cmax higher than previously observed in Western subjects” value [9, 11] was 9%, the half-life ([9]; 6 mg, Japanese, single dose 6 mg, harmonic mean (pseudo % CV), not a robust estimate, read-out: t1/2 (converted)) was 5.5 h and the AUC ([9]; 18 mg, Chinese, 18 mg BID, Day 1, mean (% CV)) was 410 ng·h/mL. It also gave an AUC [9, 12] of 466 ng·h/mL, a concentration at 14 day [9, 12] of 7.7 ng/mL and an AUC ([9]; 18 mg, Japanese, 18 mg BID, Day 1, mean (% CV)) of 440 ng·h/mL. It also gave a half-life ([9]; 18 mg, Japanese, 18 mg BID, Day 14, harmonic mean (pseudo % CV), read-out: t1/2 (converted)) of 9.51 h, an AUC [9, 13] of 522 ng·h/mL and a concentration at 14 day [9, 13] of 8.61 ng/mL. It also gave a half-life ([9]; Japanese, Chinese, and Western healthy subjects, read-out: terminal t1/2) of 7 to 9.5 h, an AUC(0-t) ([9]; Japanese, single dose 3 mg) of 87.9 ng·h/mL and an AUC(0-t) ([9]; Japanese, single dose 6 mg) of 185 ng·h/mL. For the same compound, the AUC(0-t) ([9]; Japanese, single dose 24 mg) was 722 ng·h/mL, the “dose-normalized AUC and Ctrough higher in Asians than Westerns” value ([9]; multiple BID dosing) was “approximately 20%” and the “dose-normalized Cmax higher in Asians than Westerns” value ([9]; multiple BID dosing) was “approximately 40%”. For the same compound, the Cmax [10] was 420 ng/mL.
